Measurements: ChEMBL document CHEMBL6083215, “Structure elucidation, absolute configuration, and biological evaluation of cyclic peroxides from the sponge Plakinastrella sp” (2024)

Key:
Format in all cases: functional
SF-539 = assay: Growth inhibition of human SF-539 cells
PC-3 = assay: Growth inhibition of human PC-3 cells
K562 = assay: Growth inhibition of human K562 cells
U-251 = assay: Growth inhibition of human U-251 cells
ACHN = assay: Growth inhibition of human ACHN cells
KM12 = assay: Growth inhibition of human KM12 cells
OVCAR-5 = assay: Growth inhibition of human OVCAR-5 cells
UO-31 = assay: Growth inhibition of human UO-31 cells
UACC-62 = assay: Growth inhibition of human UACC-62 cells
SW-620 = assay: Growth inhibition of human SW620 cells
SR = assay: Growth inhibition of human SR cells
SNB-75 = assay: Growth inhibition of human SNB-75 cells
SNB-19 = assay: Growth inhibition of human SNB-19 cells
IGROV-1 = assay: Growth inhibition of human IGROV-1 cells
SF-295 = assay: Growth inhibition of human SF-295 cells
MDA-MB-468 = assay: Growth inhibition of human MDA-MB-468 cells
Malme-3M = assay: Growth inhibition of human Malme-3M cells
CAKI-1 = assay: Growth inhibition of human CAKI-1 cells
T47D = assay: Growth inhibition of human T47D cells
EKVX = assay: Growth inhibition of human EKVX cells
NCI-H23 = assay: Growth inhibition of human NCI-H23 cells
SK-OV-3 = assay: Growth inhibition of human SK-OV-3 cells
NCI/ADR-RES = assay: Growth inhibition of human NCI-ADR-RES cells
786-0 = assay: Growth inhibition of human 786-0 cells
NCI-H460 = assay: Growth inhibition of human NCI-H460 cells
OVCAR-8 = assay: Growth inhibition of human OVCAR-8 cells
SK-MEL-2 = assay: Growth inhibition of human SK-MEL-2 cells
RPMI-8226 = assay: Growth inhibition of human RPMI-8226 cells
TK-10 = assay: Growth inhibition of human TK-10 cells
SF-268 = assay: Growth inhibition of human SF-268 cells
MDA-MB-435 = assay: Growth inhibition of human MDA-MB-435 cells
NCI-H322M = assay: Growth inhibition of human NCI-H322M cells
DU-145 = assay: Growth inhibition of human DU-145 cells
NCI-H522 = assay: Growth inhibition of human NCI-H522 cells
Hs-578T = assay: Growth inhibition of human HS 578T cells
OVCAR-4 = assay: Growth inhibition of human OVCAR-4 cells
BT-549 = assay: Growth inhibition of human BT-549 cells
MDA-MB-231 = assay: Growth inhibition of human MDA-MB-231 cells
HL-60(TB) = assay: Growth inhibition of human HL-60(TB) cells
HCC 2998 = assay: Growth inhibition of human HCC 2998 cells
M14 = assay: Growth inhibition of human M14 cells
CCRF-CEM = assay: Growth inhibition of human CCRF-CEM cells
RXF 393 = assay: Growth inhibition of human RXF 393 cells
HOP-62 = assay: Growth inhibition of human HOP-62 cells
HCT-15 = assay: Growth inhibition of human HCT-15 cells
OVCAR-3 = assay: Growth inhibition of human OVCAR-3 cells
COLO 205 = assay: Growth inhibition of human COLO 205 cells
HOP-92 = assay: Growth inhibition of human HOP-92 cells
LOX IMVI = assay: Growth inhibition of human LOX IMVI cells
SK-MEL-5 = assay: Growth inhibition of human SK-MEL-5 cells
NCI-H226 = assay: Growth inhibition of human NCI-H226 cells
SN12C = assay: Growth inhibition of human SN12C cells
MCF7 = assay: Growth inhibition of human MCF7 cells
UACC-257 = assay: Growth inhibition of human UACC-257 cells
MOLT-4 = assay: Growth inhibition of human MOLT-4 cells
HCT-116 = assay: Growth inhibition of human HCT-116 cells
SK-MEL-28 = assay: Growth inhibition of human SK-MEL-28 cells
A549 = assay: Growth inhibition of human A549 cells
HT-29 = assay: Growth inhibition of human HT-29 cells
A498 = assay: Growth inhibition of human A498 cells

Measured: GI50

CCCCCCCCC/C=C(/C)CC(C)(O)CC(C)C(O)CC(=O)OC (configuration not stated)
> 100000 nM: all assays above

CCCCCCCCC/C=C(/C)C[C@]1(C)C[C@H](C)[C@@H](CC(=O)O)OO1
220 nM: HL-60(TB)
110 nM: LOX IMVI
190 nM: UO-31
980 nM: all other assays above

COc1cccc2c1C(=O)c1c(O)c3c(c(O)c1C2=O)C[C@@](O)(C(=O)CO)C[C@@H]3O[C@H]1C[C@H](N)[C@H](O)[C@H](C)O1 [DOXORUBICIN]
not listed: UO-31 | HL-60(TB) | LOX IMVI
120 nM: all other assays above
